What all share (type): ADME
The target of data set [1] is T1, UDP-glucuronosyltransferase 1A3 (Homo sapiens, UniProt P35503).
T1 sequence (P35503 whole entry): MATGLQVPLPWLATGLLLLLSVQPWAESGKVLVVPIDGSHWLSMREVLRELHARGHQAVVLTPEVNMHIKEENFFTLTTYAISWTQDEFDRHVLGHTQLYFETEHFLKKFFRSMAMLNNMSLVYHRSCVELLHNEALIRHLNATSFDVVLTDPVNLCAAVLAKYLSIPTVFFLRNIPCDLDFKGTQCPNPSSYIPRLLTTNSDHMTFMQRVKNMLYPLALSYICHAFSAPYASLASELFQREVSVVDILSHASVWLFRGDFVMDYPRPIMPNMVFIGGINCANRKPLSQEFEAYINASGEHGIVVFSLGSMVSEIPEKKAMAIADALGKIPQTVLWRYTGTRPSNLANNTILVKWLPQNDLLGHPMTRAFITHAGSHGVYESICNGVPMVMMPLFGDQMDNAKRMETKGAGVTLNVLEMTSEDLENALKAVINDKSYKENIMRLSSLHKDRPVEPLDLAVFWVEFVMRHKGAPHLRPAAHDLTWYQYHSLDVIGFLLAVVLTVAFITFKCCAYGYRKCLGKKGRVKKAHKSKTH
Kind of data set: Activity of human recombinant UGT1A3 expressed in insect cells assessed as enzyme mediated glucuronidation at 500 uM by LC-MS/MS method.

The target of data set [2] is T2, UDP-glucuronosyltransferase 1A9 (Homo sapiens, UniProt O60656).
T2 sequence (O60656 whole entry): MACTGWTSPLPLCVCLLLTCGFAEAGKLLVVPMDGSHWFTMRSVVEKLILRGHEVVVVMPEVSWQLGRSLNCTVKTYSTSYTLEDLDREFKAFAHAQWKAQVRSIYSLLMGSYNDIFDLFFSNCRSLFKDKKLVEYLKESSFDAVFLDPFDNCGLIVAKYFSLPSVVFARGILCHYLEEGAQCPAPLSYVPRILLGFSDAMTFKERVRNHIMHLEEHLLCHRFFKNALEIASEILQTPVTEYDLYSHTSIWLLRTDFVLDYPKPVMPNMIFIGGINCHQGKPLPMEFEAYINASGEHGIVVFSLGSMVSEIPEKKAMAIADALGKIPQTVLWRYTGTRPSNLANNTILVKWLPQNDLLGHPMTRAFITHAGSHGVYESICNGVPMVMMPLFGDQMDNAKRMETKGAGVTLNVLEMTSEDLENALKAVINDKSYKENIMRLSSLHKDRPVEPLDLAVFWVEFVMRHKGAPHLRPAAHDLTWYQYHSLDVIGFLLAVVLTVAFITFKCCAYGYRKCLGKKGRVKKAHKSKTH
Kind of data set: Activity of human recombinant UGT1A9 expressed in insect cells assessed as enzyme mediated glucuronidation at 12.5 uM by LC-MS/MS method.

The target of data set [3] is T3, UDP-glucuronosyltransferase 1A6 (Homo sapiens, UniProt P19224).
T3 sequence (P19224 whole entry): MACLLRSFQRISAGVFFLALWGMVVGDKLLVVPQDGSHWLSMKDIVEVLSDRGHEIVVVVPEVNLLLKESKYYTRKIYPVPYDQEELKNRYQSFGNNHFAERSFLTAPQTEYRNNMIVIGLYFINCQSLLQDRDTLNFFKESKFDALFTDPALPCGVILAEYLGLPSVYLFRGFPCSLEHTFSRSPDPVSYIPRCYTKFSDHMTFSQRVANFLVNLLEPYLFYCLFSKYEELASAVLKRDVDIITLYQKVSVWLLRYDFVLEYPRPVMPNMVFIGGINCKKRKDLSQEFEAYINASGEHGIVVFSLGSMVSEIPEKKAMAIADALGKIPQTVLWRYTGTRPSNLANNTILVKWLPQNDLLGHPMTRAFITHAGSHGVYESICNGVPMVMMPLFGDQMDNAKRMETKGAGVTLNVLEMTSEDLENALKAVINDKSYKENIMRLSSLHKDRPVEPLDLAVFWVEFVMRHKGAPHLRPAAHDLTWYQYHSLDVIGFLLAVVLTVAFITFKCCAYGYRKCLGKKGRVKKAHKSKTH
The data set is described as follows: Activity of human recombinant UGT1A6 expressed in insect cells assessed as enzyme mediated glucuronidation at 500 uM by LC-MS/MS method.

The subject of data set [4] is Liver microsome. Kind of data set: Drug metabolism in human liver microsomes assessed as intrinsic clearance for drug glucuronidation per mg tissue in presence of BSA by LC-MS/MS method.
The subject of data set [5] is Liver microsome. Kind of data set: Drug metabolism in human liver microsomes assessed as drug glucuronidation in presence of 50 estradiol by LC-MS/MS method.
The target in data set [6] is T4, UDP-glucuronosyltransferase 2B7 (Homo sapiens, UniProt P16662).
T4 sequence (P16662 whole entry): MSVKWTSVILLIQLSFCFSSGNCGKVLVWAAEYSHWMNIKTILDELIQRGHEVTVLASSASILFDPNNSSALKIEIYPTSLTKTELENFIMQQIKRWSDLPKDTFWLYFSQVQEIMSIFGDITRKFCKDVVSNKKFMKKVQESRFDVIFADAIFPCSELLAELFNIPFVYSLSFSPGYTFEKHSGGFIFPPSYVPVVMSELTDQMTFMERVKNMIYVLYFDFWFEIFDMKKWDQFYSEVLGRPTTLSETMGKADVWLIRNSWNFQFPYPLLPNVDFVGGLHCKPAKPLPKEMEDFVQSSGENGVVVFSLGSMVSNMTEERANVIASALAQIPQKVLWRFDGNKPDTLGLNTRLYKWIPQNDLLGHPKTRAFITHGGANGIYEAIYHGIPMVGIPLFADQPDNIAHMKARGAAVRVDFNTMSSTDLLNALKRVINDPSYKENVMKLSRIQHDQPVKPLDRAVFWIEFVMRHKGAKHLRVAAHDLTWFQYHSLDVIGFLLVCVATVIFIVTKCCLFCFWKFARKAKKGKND
The data set is described as follows: Activity of human recombinant UGT2B7 expressed in insect cells assessed as enzyme mediated glucuronidation in presence of […] naloxone by LC-MS/MS method.

Data set [7] can be described thus: Drug metabolism in human kidney microsomes assessed as drug glucuronidation per mg tissue in absence of BSA by LC-MS/MS method.
In data set [8] the test system is Liver microsome. The data set is described as follows: Drug metabolism in human liver microsomes assessed as intrinsic clearance for drug glucuronidation per mg tissue in absence of BSA by LC-MS/MS method. On the technique in general: Liver microsomes are a subcellular fraction often used to study metabolism.
A short description of data set [9]: Drug metabolism in human kidney microsomes assessed as drug glucuronidation per mg tissue in presence of BSA by LC-MS/MS method.
The subject of data set [10] is Liver microsome. Kind of data set: Drug metabolism in human liver microsomes assessed as drug glucuronidation in presence of […] naloxone by LC-MS/MS method.
Data set [11] concerns the target T3, UDP-glucuronosyltransferase 1A6. The data set is described as follows: Activity of human recombinant UGT1A6 expressed in insect cells assessed as intrinsic clearance for enzyme mediated glucuronidation per mg protein by LC-MS/MS method.
In data set [12] the target is T4, UDP-glucuronosyltransferase 2B7. Kind of data set: Activity of human recombinant UGT2B7 expressed in insect cells assessed as intrinsic clearance for enzyme mediated glucuronidation per mg protein by LC-MS/MS method.
For data set [13] the target is unchanged. The data set is described as follows: Activity of human recombinant UGT2B7 expressed in insect cells assessed as enzyme mediated glucuronidation at 500 uM by LC-MS/MS method.

`CC1=NN(c2ccccc2)C(=O)C1` [EDARAVONE]: the Drug metabolism entry is reported as “metabolite_detected” in data set [1]; “metabolite_detected” in [2]; “metabolite_detected” in [3]; “metabolite_not_detected” in [5]; “metabolite_not_detected” in data set [6]; “metabolite_detected” in data set [10]. Besides, in [13], the Drug metabolism result is given as “metabolite_detected”. For the same compound, the figures for the CLHH in data set [4] and in data set [8] were 16.4 µL/min/g and 8.4 µL/min/g, respectively. Moreover, the CLHL was 3.7 µL/min/mg in data set [4] and 1.3 µL/min/mg in [8]. In addition, the values for the VmaxH in data set [7] and in data set [9] were 336.5 pmol/min/g and 696 pmol/min/g, respectively. Moreover, the VmaxL in data set [7] is reported as 2396 pmol/min/g; in [9] it was 5265 pmol/min/g. Moreover, in [11], the clearance turned out to be 1.6 µL/min/mg. In data set [12], the CL came to 0.7 µL/min/g.

Values taken from ChEMBL document CHEMBL3526061, “Glucuronidation of edaravone by human liver and kidney microsomes: biphasic kinetics and identification of UGT1A9 as the major UDP-glucuronosyltransferase isoform” (Drug Metab Dispos, 2012).
